Reference: PMC10160982 (Proceedings of the National Academy of Sciences of the …, 2023)

Legend:
SARS-CoV-2-trVLPs = assay type: cell-based, SARS-CoV-2 (Wuhan-Hu-1 strain); details: ratio of CC50 to antiviral EC50, Caco-2-N cells
[1] = system: secretion of the matured form of IL-1β (P17) in SFTSV-infected THP-1 macrophages; assay: cells; assay type: cell-based; details: for inhibition at 10 µM: Homo sapiens, THP-1, 48 h, read-out: inhibition rate of IL-1β (P17) secretion
[2] = system: SARS-CoV-2-induced IL-1β P17 release in Calu-3 cells; assay type: cell-based
[3] = target: SARS-CoV-2 polymerase complex (RdRp; nsp12, nsp7-nsp8) (Severe acute respiratory syndrome coronavirus 2, UniProt P0DTD1); assay: biochemical; details: RdRp inhibition IC50, in vitro polymerase activity assay
[4] = target: PDE4 (catalytic domain of human PDE4D) (Homo sapiens, UniProt Q08499); assay: PDE4 inhibition assay; assay type: biochemical
PDE4 (catalytic domain of human PDE4D), sequence (Q08499 388-715): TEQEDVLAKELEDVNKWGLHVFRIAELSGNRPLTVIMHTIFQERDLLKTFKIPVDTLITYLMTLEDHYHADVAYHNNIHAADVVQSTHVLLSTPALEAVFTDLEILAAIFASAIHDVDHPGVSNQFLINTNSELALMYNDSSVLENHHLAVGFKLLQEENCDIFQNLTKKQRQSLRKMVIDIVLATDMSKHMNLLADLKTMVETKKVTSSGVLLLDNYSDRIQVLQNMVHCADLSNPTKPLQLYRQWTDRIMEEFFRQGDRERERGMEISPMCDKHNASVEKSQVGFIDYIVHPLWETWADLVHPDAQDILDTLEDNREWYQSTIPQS

Row | SMILES | selectivity index (SI = CC50/EC50) (SARS-CoV-2-trVLPs) | anti-inflammation activity (inhibition of P17 secretion), dose dependence [1] | inhibition at 10 µM [1] | reduction of SARS-CoV-2-induced IL-1β P17 release, dose dependence [2] | IC50 [3] | IC50 [4]
1 | COc1cc(O)ccc1/C=C/C(=O)c1ccc(O)cc1 [Echinatin] | > 5.0 | dose-dependent manner | > 90% | dose-dependent effects | – | –
2 | Cc1cc(O)c2c(c1)C(=O)c1cc(O)cc(O)c1C2=O [Emodin] | > 5.0 | – | – | – | – | –
3 | CC(C)=CCc1cc(-c2coc3cc(O)cc(O)c3c2=O)cc(O)c1O [Glycyrrhisoflavone] | > 5.0 | dose-dependent manner | > 90% | dose-dependent effects | 28.9 µM | 1.29 µM
4 | C=CCc1ccc(O)c(-c2cc(CC=C)ccc2O)c1 [Magnolol] | > 5.0 | – | – | – | – | –
5 | O=c1c(O)c(-c2ccc(O)c(O)c2)oc2cc(O)cc(O)c12 [Quercetin] | > 5.0 | – | – | – | – | 17.4 µM
